Measured values published in patent publication US20230257351A1, “SUBSTITUTED N-[…] HAVING P2X4 RECEPTOR ANTAGONISTIC ACTIVITY” (Bayer Aktiengesellschaft, priority 2020, published 2023).

What was measured:
[1] = biological target: T1, human P2X4 (Homo sapiens, UniProt Q99571); experiment: Human P2X4 HEK Cell FLIPR Assay; format: cell-based; conditions: HEK293 stably expressing human P2X4, agonist Bz-ATP 3 μM (EC80); for IC50: read-out: Human P2X4 HEK Cells (FLIPR Assay) avg IC50
T1 construct: expressed in transfected cells
T1 sequence (Q99571 1-388): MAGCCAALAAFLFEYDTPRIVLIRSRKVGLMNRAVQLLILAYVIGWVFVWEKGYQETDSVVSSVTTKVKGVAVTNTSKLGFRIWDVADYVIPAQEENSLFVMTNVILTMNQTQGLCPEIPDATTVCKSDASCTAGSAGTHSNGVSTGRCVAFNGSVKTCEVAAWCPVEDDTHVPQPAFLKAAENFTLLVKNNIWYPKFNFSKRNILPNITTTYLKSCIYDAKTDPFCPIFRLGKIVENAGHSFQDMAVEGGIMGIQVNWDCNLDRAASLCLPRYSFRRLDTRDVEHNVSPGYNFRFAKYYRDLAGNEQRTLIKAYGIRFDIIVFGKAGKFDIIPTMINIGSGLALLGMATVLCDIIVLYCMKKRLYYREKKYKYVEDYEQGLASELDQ
Procedure, shortened: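 Compounds were preincubated 30 min at room temperature on Fluo8-AM-loaded HEK293 cells stably expressing human P2X4. The response was the calcium fluorescence rise on Bz-ATP addition.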

[2] = biological target: T2, rat P2X4 (Rattus norvegicus, UniProt P51577); experiment: FLIPR Method for Rat P2X4 1321N1 Astrocytoma Cells; format: cell-based; conditions: 1321N1 stably expressing rat P2X4; agonist MgATP 5 μM (EC80)
T2 construct: expressed in transfected cells
T2 sequence (P51577 1-388): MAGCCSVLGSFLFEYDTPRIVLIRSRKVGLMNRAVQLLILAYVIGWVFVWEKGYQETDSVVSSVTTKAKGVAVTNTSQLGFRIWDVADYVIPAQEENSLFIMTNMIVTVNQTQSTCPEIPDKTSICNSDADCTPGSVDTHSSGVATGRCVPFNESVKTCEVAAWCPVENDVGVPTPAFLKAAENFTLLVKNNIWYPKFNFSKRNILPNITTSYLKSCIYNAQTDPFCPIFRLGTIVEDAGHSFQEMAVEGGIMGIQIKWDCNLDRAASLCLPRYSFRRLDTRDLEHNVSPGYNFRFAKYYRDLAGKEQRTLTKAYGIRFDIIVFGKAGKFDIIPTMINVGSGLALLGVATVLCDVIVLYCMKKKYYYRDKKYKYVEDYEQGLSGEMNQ
Method: Compounds were tested on a 1321N1 cell line stably expressing rat P2X4. Cells were cultured on collagen-I-coated 384-well plates at a density of 10,000 cells/well and incubated overnight at 37° C., 5% CO2. P2X4 function was assessed by measuring intracellular calcium fluxes caused by Magnesium-ATP (MgATP) using the calcium-chelating dye Fluo8-AM (Molecular Devices) with the Fluorescent Imaging Plate Reader Tetra (FLIPR^Tetra; Molecular Devices CA). On the day of the assay, the medium was removed and the cells were incubated for 30 minutes at 37° C. and 5% CO2 in 30 μl of dye buffer (Hank's balanced salt solution, 10 mM HEPES, 1.8 mM CaCl2, 1 mM MgCl2, 2 mM probenecid, 5 mM D-glucose monohydrate, 5 μM Fluo8-AM, pH=7.4).
Compounds diluted in probenecid buffer (Hank's balanced salt solution, 10 mM HEPES, 1.8 mM CaCl2, 1 mM MgCl2, 2 mM probenecid, 5 mM D-glucose monohydrate, pH=7.4) at ten concentrations ranging from 25 μM to 1 nM (final concentration) were dispensed and incubated for 30 minutes at room temperature. The agonist, MgATP (Sigma-Aldrich Chemie GmbH, DE), was added at a final concentration of 5 μM, representing the EC80 routinely determined. The final assay volume was 50 μl and final DMSO concentration was 0.5%.
The fluorescence intensity reflecting intracellular calcium changes was recorded before and after MgATP addition, at an excitation and emission wavelengths of 470-495 nm and 515-575 nm respectively.
The compounds were tested in triplicates and fluorescence intensity raw data normalized to the agonist control and fitted to the four-parameter logistic equation:
Y=Bottom+(Top−Bottom)/(1+10^((Log IC50−X)*HillSlope))
Assay plate acceptance was based on the signal window (S/B)[…] and the reference compound pIC50 within ±[…] the mean of historic pIC50 of the compound. Failure to meet two of the three criteria determined exclusion of the plate's results. In Table 10 below the results for the assays are reported

Structure (SMILES) | Human P2X4 HEK Cells (FLIPR Assay) avg Efficacy [1] | IC50 [1] | IC50 [2] | Rat P2X4 1321N1 Astrocytoma Cells (FLIPR Assay) avg Efficacy [2]
CC(=O)N(c1ccc(Cl)c(F)c1)c1cc(NC(=O)Cc2cccc(F)c2Cl)ccn1 [Example 60, N-(4-chloro-3-fluorophenyl)-N-{4-[2-(2-chloro-3-fluorophenyl)acetamido]pyridin-2-yl}acetamide] | 96% | 454 nM | 434 nM | 94%
CC(=O)N(c1ccc(F)c(F)c1)c1cc(NC(=O)Cc2ccccc2C(F)(F)F)ccn1 [Example 63, N-(3,4-difluorophenyl)-N-(4-{2-[2-(trifluoromethyl)phenyl]acetamido}pyridin-2-yl)acetamide] | 97% | 424 nM | 372 nM | 97%
CC(=O)N(c1ccc(F)c(F)c1)c1cc(NC(=O)Cc2c(C)cc(Cl)cc2Cl)ccn1 [Example 64, N-{4-[2-(2,4-dichloro-6-methylphenyl)acetamido]pyridin-2-yl}-N-(3,4-difluorophenyl)acetamide] | 96% | 829 nM | 497 nM | 100%
CC(=O)N(c1ccc(F)c(F)c1)c1cc(NC(=O)Cc2c(C)cc(C)cc2Cl)ccn1 [Example 65, N-{4-[2-(2-chloro-4,6-dimethylphenyl)acetamido]pyridin-2-yl}-N-(3,4-difluorophenyl)acetamide] | 94% | 505 nM | 122 nM | 93%
CC(=O)N(c1ccc(F)c(F)c1)c1cc(NC(=O)Cc2ccc(Cl)cc2Cl)ccn1 [Example 67, N-{4-[2-(2,4-dichlorophenyl)acetamido]pyridin-2-yl}-N-(3,4-difluorophenyl)acetamide] | 94% | 604 nM | 159 nM | 97%
CC(=O)N(c1ccc(F)c(F)c1)c1cc(NC(=O)Cc2ccc([N+](=O)[O-])cc2Cl)ccn1 [Example 69, N-{4-[2-(2-chloro-4-nitrophenyl)acetamido]pyridin-2-yl}-N-(3,4-difluorophenyl)acetamide] | 94% | 816 nM | 228 nM | 100%
COc1ccc(CC(=O)Nc2ccnc(N(C(C)=O)c3ccc(F)c(F)c3)c2)c(Cl)c1 [Example 70, N-{4-[2-(2-chloro-4-methoxyphenyl)acetamido]pyridin-2-yl}-N-(3,4-difluorophenyl)acetamide] | 88% | 714 nM | 714 nM | 100%
CC(=O)N(c1ccc(F)c(F)c1)c1cc(NC(=O)Cc2c(Cl)cc(F)cc2Cl)ccn1 [Example 73, N-{4-[2-(2,6-dichloro-4-fluorophenyl)acetamido]pyridin-2-yl}-N-(3,4-difluorophenyl)acetamide] | 97% | 428 nM | 67.1 nM | 93%
CC(=O)N(c1ccc(F)c(F)c1)c1cc(NC(=O)Cc2c(Cl)cc(C)cc2Cl)ccn1 [Example 74, N-{4-[2-(2,6-dichloro-4-methylphenyl)acetamido]pyridin-2-yl}-N-(3,4-difluorophenyl)acetamide] | 89% | 585 nM | 99.1 nM | 97%
CC(=O)N(c1ccc(F)c(F)c1)c1cc(NC(=O)Cc2ccccc2OC(F)(F)F)ccn1 [Example 76, N-(3,4-difluorophenyl)-N-(4-{2-[2-(trifluoromethoxy)phenyl]acetamido}pyridin-2-yl)acetamide] | 97% | 397 nM | 667 nM | 99%
COc1ccc(N(C(C)=O)c2cc(NC(=O)Cc3cccc(F)c3Cl)ccn2)cc1F [Example 79, N-{4-[2-(2-chloro-3-fluorophenyl)acetamido]pyridin-2-yl}-N-(3-fluoro-4-methoxyphenyl)acetamide] | 97% | 399 nM | 1110 nM | 96%
COc1ccc(N(C(C)=O)c2cc(NC(=O)Cc3c(Cl)cccc3Cl)ccn2)cc1F [Example 80, N-{4-[2-(2,6-dichlorophenyl)acetamido]pyridin-2-yl}-N-(3-fluoro-4-methoxyphenyl)acetamide] | 99% | 451 nM | 338 nM | 97%

The next compounds have a lower IC50 [1] than those just listed; values first:

Human P2X4 HEK Cells (FLIPR Assay) avg Efficacy [1] | IC50 [1] | IC50 [2] | Rat P2X4 1321N1 Astrocytoma Cells (FLIPR Assay) avg Efficacy [2] | Structure (SMILES)
91% | 251 nM | 368 nM | 91% | CC(=O)N(c1ccc(F)c(F)c1)c1cc(NC(=O)Cc2cccc(C)c2C)ccn1 [Example 62, N-(3,4-difluorophenyl)-N-{4-[2-(2,3-dimethylphenyl)acetamido]pyridin-2-yl}acetamide]
90% | 303 nM | 64.2 nM | 73% | CC(=O)N(c1ccc(F)c(F)c1)c1cc(NC(=O)Cc2c(C)cccc2C)ccn1 [Example 66, N-(3,4-difluorophenyl)-N-{4-[2-(2,6-dimethylphenyl)acetamido]pyridin-2-yl}acetamide]
96% | 222 nM | 165 nM | 90% | CC(=O)N(c1ccc(F)c(F)c1)c1cc(NC(=O)Cc2cccc(F)c2Cl)ccn1 [Example 71, N-{4-[2-(2-chloro-3-fluorophenyl)acetamido]pyridin-2-yl}-N-(3,4-difluorophenyl)acetamide]
97% | 355 nM | 58.5 nM | 89% | CC(=O)N(c1ccc(F)c(F)c1)c1cc(NC(=O)Cc2c(Cl)cccc2Cl)ccn1 [Example 72, N-{4-[2-(2,6-dichlorophenyl)acetamido]pyridin-2-yl}-N-(3,4-difluorophenyl)acetamide]
94% | 354 nM | 993 nM | 84% | COc1ccc(N(C(C)=O)c2cc(NC(=O)Cc3ccccc3Cl)ccn2)cc1F [Example 77, N-{4-[2-(2-chlorophenyl)acetamido]pyridin-2-yl}-N-(3-fluoro-4-methoxyphenyl)acetamide]
97% | 350 nM | 143 nM | 90% | CC(=O)N(c1cc(F)cc(F)c1)c1cc(NC(=O)Cc2cccc(C)c2C)ccn1 [Example 83, N-(3,5-difluorophenyl)-N-{4-[2-(2,3-dimethylphenyl)acetamido]pyridin-2-yl}acetamide]
